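Values below derive from 48-hour exposures of cells grown in 96-well plates, with endpoints linearly interpolated between the two concentrations bracketing the appropriate inhibition level. The concentration for full growth arrest is given as TGI.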
How the values were obtained:
Test in all cases: NCI-60 cell line screen, 48 h
[1] = system: MDA-MB-435
[2] = system: MDA-N
[3] = system: LXFL 529 NSCLC
[4] = system: M19-MEL melanoma
[5] = system: HOP-18 NSCLC
[6] = system: KM20L2 colon
[7] = system: DLD-1 colon
[8] = system: XF 498 CNS
[9] = system: RXF-631 renal

| Compound | TGI [1] | TGI [2] | TGI [3] | TGI [4] | TGI [5] | TGI [6] | TGI [7] | TGI [8] | TGI [9] |
| --- | --- | --- | --- | --- | --- | --- | --- | --- | --- |
| COc1ccc(N/N=C/C2=CC(C)(C)C(C#N)(C#N)C(O)=C2C#N)cc1 | > 100 µM | > 100 µM |  |  |  |  |  |  |  |
| N#Cc1ccc(OCCSCCCCCCCCCCSCCOc2ccc(C#N)cc2)cc1 |  |  | > 100 µM | > 100 µM | > 100 µM | > 100 µM |  |  |  |
| CC(=O)C1C(=O)C(C(C)=O)C2C3C=CC(C3)C12 (stereo not given) | > 100 µM | > 100 µM |  |  |  |  |  |  |  |
| Cc1ccc(N=C2OP(=O)(Nc3ccc(C)cc3)Oc3ccccc32)cc1 (stereo not given) | > 100 µM | > 100 µM |  |  |  |  |  |  |  |
| Cc1cc2c(=O)c(C)n[nH]c2c(C#N)c1C |  |  | > 100 µM | > 100 µM | > 100 µM | > 100 µM | > 100 µM | > 100 µM | > 100 µM |
| CC(=O)Nn1cnc(C(=N)C#N)c1N | > 100 µM | > 100 µM |  |  |  |  |  |  |  |
| Brc1ccc(C=NC23CC4CC(CC(C4)C2)C3)cc1 |  |  | > 100 µM | > 100 µM | > 100 µM | > 100 µM | > 100 µM | > 100 µM | > 100 µM |
| CCOC(=O)C(NC(=O)c1cccc(Cl)c1)(Nc1ccc(S(=O)(=O)Nc2cc(C)nc(C)n2)cc1)C(F)(F)F (stereo not given) | > 100 µM |  |  |  |  |  |  |  |  |
| c1cc(C2=NCCO2)c2ccsc2c1 | > 100 µM | > 100 µM |  |  |  |  |  |  |  |
| CC12C3CC4C5CC(C(C53)[C@@H]1NCc1ccccc1)C42 (stereo not given in full) |  |  | > 100 µM |  | > 100 µM | > 100 µM | > 100 µM | > 100 µM | > 100 µM |
| NNC(=O)CC(=O)Nc1ccc(S(=O)(=O)c2ccc(NC(=O)CC(=O)NN)cc2)cc1 | > 100 µM |  |  |  |  |  |  |  |  |
| CC(C)c1cccc(C(C)C)c1NC(=O)C(=O)C1CCC2=C(Sc3ccccc3N2)C1=O (stereo not given) |  |  | > 100 µM | > 100 µM | > 100 µM | > 100 µM | > 100 µM |  | > 100 µM |
| CN1N=C2c3ccccc3OC(c3ccccc3)[C@H]2C1c1ccccc1 (stereo not given in full) |  |  | > 100 µM | > 100 µM | > 100 µM | > 100 µM | > 100 µM | > 100 µM |  |
| O=c1[nH]nc(CNc2ccc(Cl)cc2Cl)c2ccccc12 |  |  | 40.1 µM | > 100 µM | 54.4 µM | 75.2 µM | 90.6 µM |  | > 100 µM |
| COc1ccc2c(=O)c3c([nH]c2c1)OCC3=O | > 100 µM |  |  |  |  |  |  |  |  |
| O=S1(=O)c2ccccc2N2C(c3ccccc3)=NOC2(c2ccccc2)CC1c1ccc(Br)cc1 (stereo not given) | > 100 µM | > 100 µM |  |  |  |  |  |  |  |
| O=C(c1ccccc1)N(CCCCNC(=O)C(F)(F)F)CCCNC(=O)C(F)(F)F | > 100 µM | > 100 µM |  |  |  |  |  |  |  |
| CN(C)/C=C/c1c2c(nc3ccccc13)C(=O)c1cccnc1C2=O | 1.56 µM | 1.92 µM |  |  |  |  |  |  |  |
| Cc1nc(C)c(N2CCN(S(N)(=O)=O)CC2)c(=O)[nH]1 | > 100 µM |  |  |  |  |  |  |  |  |
| CN/N=C(\C(=O)Nc1ccc(C(F)(F)F)cc1[N+](=O)[O-])C(c1cnc2ccc([N+](=O)[O-])cc2n1)[N+](=O)[O-] (stereo not given) |  |  | > 100 µM | > 100 µM |  |  | > 100 µM |  |  |
| N#CC(C(=O)CCC(=O)Nc1cccc(C(F)(F)F)c1)c1ccccc1 (stereo not given) |  |  | > 100 µM | > 100 µM |  | > 100 µM | > 100 µM | > 100 µM |  |
